Values quoted from earlier work in patent EP2545940A9, “Parenteral compositions” (hameln rds gmbh, priority 2011, dated 2013).
Like-named read-outs stand apart in the source and are kept apart here.

Conditions: 25°C

Structure (SMILES): C[C@H](/C=C/[C@H](C)C(C)(C)O)[C@H]1CC[C@H]2/C(=C/C=C3C[C@@H](O)C[C@H](O)C3)CCC[C@]12C [Paracalcin, (1 R, 3R, 7E, 17β) -17 - [(1 R, 2E, 4S)-5-Hydroxy-1 ,4,5-trimethylhex-2-en-1-yl] -9,10-secoestra-5,7-Dien-1 ,3-diol]
- Paracalcin (cosolvent: Ethanol 0.00, Propylene glycol 0.302, Water 0.698): 0.58 µg/mL
- Paracalcin (cosolvent: Ethanol 0.00, Propylene glycol 0.506, Water 0.494): 14.21 µg/mL
- Paracalcin (cosolvent: Ethanol 0.100, Propylene glycol 0.257, Water 0.643): 2.88 µg/mL
- Paracalcin (cosolvent: Ethanol 0.199, Propylene glycol 0.207, Water 0.594): 15.94 µg/mL
- Paracalcin (cosolvent: Ethanol 0.201, Propylene glycol 0.308, Water 0.491): 72.90 µg/mL
- Paracalcin (cosolvent: Ethanol 0.299, Propylene glycol 0.00, Water 0.701): 6.82 µg/mL
- Paracalcin (cosolvent: Ethanol 0.347, Propylene glycol 0.102, Water 0.551): 119.37 µg/mL
- Paracalcin (cosolvent: Ethanol 0.498, Propylene glycol 0.00, Water 0.502): 601.63 µg/mL
